From patent US9464064B2, “HCV helicase inhibitors and methods of use thereof” (University of Kansas, priority 2011, dated 2016)
Starred links: 1 amine or outer side, 2 acyl side, 3 side chain; linkers in the order of their positions; H or OH if unused. Positions of bridges follow the written chain, without caps; N, C: chain ends. Non-standard residues stand in square brackets, D forms with d. Residues, ends and D or L forms follow the SMILES beside them. Chains are numbered I, II in the order given. Actinocin(1to9) = Cc1c2oc3c(C)ccc(C(=O)[*:2])c3nc-2c(C(=O)[*:1])c(N)c1=O; NMeV = CN[C@H](C(=O)O)C(C)C; Sar = CNCC(=O)O

Target: T1, HCV NS3 helicase NS3h_1b(con1) (Hepatitis C virus genotype 1b, UniProt Q9WMX2)
T1 construct: truncated C-terminally His-tagged NS3 proteins lacking the N-terminal protease, called NS3h; His-tag (C); made in house
Assay: MBHA screen of NCI mechanistic set library at 20 μM (percent inhibition, compound interference)
Assay type: biochemical
Conditions: compounds at 20 μM; for Inh. (%) (Inhibition): calculated from Equation 1
Description: All molecular beacon-based helicase assays (MBHAs) were performed according to known methods (Belon & Frick (2008) supra; Belon & Frick (2009) supra). […] In each flat, black 384-well plate, 56 compounds were tested, in triplicate, along with three negative controls (DMSO only), three positive controls (500 nM dT20), and two wells with no enzyme. Fluorescence was read before ATP (F0) addition and 30 minutes after ATP was added to 1 mM (F30) using a Tecan Infinite M200 fluorescence microplate reader with excitation and emission wavelengths set to 643 and 670 nm, respectively. Percent inhibition was calculated with equation 1, and compound interference in the MBHA was calculated with equation 2.
In Equations 1 and 2, Fc0 is the fluorescence of the reactions containing the test compound before adding ATP, Fc30 is the fluorescence of the test compound reaction 30 minutes after adding ATP. F(−)0 is the average of three DMSO-only negative control reactions before adding ATP and F(−)30 is the average of three DMSO-only reactions 30 minutes after adding ATP.
To identify HCV helicase inhibitors, the MBHA was first used to screen the National Cancer Institute Developmental Therapeutics Program's mechanistic set library. In total, 827 compounds (at 20 μM) were screened using a MBHA with a DNA substrate (Table 1). Compounds were ranked by their ability to inhibit HCV helicase-catalyzed DNA unwinding as calculated from Equation 1.
Compound interference in the MBHA was evaluated by comparing the fluorescence of reactions containing each compound to the fluorescence of DMSO-only negative controls before ATP was added.

[1] = MBHA with DNA substrate, assay interference calculated with Equation 2
[2] = assay interference calculated with Equation 2 (fluorescence vs DMSO-only controls before ATP)

T1 sequence (Q9WMX2 1192-1657): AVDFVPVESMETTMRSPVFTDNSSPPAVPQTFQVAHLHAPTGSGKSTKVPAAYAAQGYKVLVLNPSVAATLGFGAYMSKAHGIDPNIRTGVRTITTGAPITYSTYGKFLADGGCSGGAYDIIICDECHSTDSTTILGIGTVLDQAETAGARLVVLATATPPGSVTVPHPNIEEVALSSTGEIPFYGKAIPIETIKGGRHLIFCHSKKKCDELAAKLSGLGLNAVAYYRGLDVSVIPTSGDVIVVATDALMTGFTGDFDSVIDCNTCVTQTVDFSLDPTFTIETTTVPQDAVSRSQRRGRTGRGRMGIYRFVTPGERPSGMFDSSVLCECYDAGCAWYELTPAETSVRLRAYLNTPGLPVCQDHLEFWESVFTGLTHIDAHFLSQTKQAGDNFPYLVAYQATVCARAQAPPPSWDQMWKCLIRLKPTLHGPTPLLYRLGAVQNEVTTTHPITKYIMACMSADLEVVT

SMILES | Int.* (Ratio) (Interference) [1] | Inh. (%) (Inhibition) (MBHA with DNA substrate) | Inh. (%) (Inhibition) (MBHA with a DNA substrate) | Int.* (Ratio) (Interference) [2]
CC(C)=CC1C(C(=O)O)C1(C)C (stereo not shown) [Compound 11779] | 0.89 Ratio | 16.8% | – | –
CC1=C(O)c2ccccc2C(=O)C1=O [Compound 11897] | 1.05 Ratio | 2.5% | – | –
CC(C)=CCC1=C(O)c2ccccc2C(=O)C1=O [Compound 11905] | – | – | −4.3% | 0.80 Ratio
COc1cccc2c1cc([N+](=O)[O-])c1c(C(=O)O)cc3c(c12)OCO3 [Compound 11926] | 1.14 Ratio | −12.8% | – | –
CN(C)CCOc1ccc(I)cc1Cc1ccccc1.Cl [Compound 11930] | 1.10 Ratio | −18.9% | – | –
O=c1c(Br)c(-c2ccccc2)[nH]c2ccccc12 [Compound 12825] | 0.95 Ratio | 4.4% | – | –
Nc1ccc2c(c1)S(=O)(=O)c1cc(N)ccc1-2 [Compound 13966] | 1.13 Ratio | −14.1% | – | –
Cc1cc2cc3cc(C)c(N)cc3nc2cc1N [Compound 13973] | 0.28 Ratio | 31.8% | – | –
CCN(CC)CCCC(C)Nc1c2ccc(Cl)cc2nc2ccc(OC)cc12.Cl.Cl (stereo not shown) [Compound 14229] | 1.08 Ratio | 55.1% | – | –
CCN(CC)CCNc1ccc(C)c2sc3ccccc3c(=O)c12.Cl [Compound 14574] | 0.85 Ratio | 30.3% | – | –
CC1=CC(O)C(O)C2(C)C1CC1OC(=O)C(O)C3C(C)C(O)C4(O)OCC13C42 (stereo not shown) [Compound 14974] | 0.99 Ratio | 20.9% | – | –
CC[C@](C)(O)C(=O)O[C@H]1C(=O)O[C@@H]2C[C@H]3C(C)=C[C@H](O)[C@@H](O)[C@]3(C)[C@H]3[C@@]4(O)OC[C@]32[C@@H]1[C@@H](C)[C@H]4O [Compound 14975] | – | – | −20.8% | 1.03 Ratio
O=[N+]([O-])[O-].O=[N+]([O-])[O-].O=[N+]([O-])[O-].[Ga+3] [Compound 15200] | 0.75 Ratio | 53.4% | – | –
CC[C@H](C)[C@@H]1NC(=O)[C@@H](NC(=O)c2c3nc4c(C(=O)N[C@@H]5C(=O)N[C@@H](C(C)C)C(=O)N6CCC[C@H]6C(=O)N(C)CC(=O)N(C)[C@@H](C(C)C)C(=O)O[C@@H]5C)ccc(C)c4oc-3c(C)c(=O)c2N)[C@@H](C)OC(=O)[C@H](C(C)C)N(C)C(=O)CN(C)C(=O)[C@@H]2CCCN2C1=O [Compound 18268] (I: TIP[Sar][NMeV] / II: TVP[Sar][NMeV]; ester I:1-I:C, II:1-II:C; linker I:N-II:N via Actinocin(1to9)) | 0.61 Ratio | 27.6% | – | –
CC(C)c1cccc(O)c(=O)c1 [Compound 18804] | 0.97 Ratio | 15.2% | – | –
CC(C)c1ccc(O)c(=O)cc1 [Compound 18805] | 0.98 Ratio | 31.0% | – | –
CN(C)CCCN1c2ccccc2Sc2ccc3ccccc3c21 [Compound 18891] | – | – | −4.0% | 0.89 Ratio
CCCCCCCCCCCCC(O)C(=O)O (stereo not shown) [Compound 18938] | 1.06 Ratio | 1.7% | – | –
CCN(CC)CCOc1ccc(C(O)(Cc2ccc(OC)cc2)c2ccccc2)cc1 (stereo not shown) [Compound 19857] | – | – | 7.4% | 1.05 Ratio
COC(=O)C1C(O)C(C)C(O)C(C)/C=C\C=C(C)C(=O)Nc2c(C)c(OC(C)=O)c3c(c2O)C(=O)C(C)=C2OCOC(=C23)C(C)=CC(C)(O)C(O)C(C)C1O (stereo not shown) [Compound 19990] | 0.96 Ratio | 25.1% | – | –
Nc1nc2c(ncn2[C@@H]2O[C@H](CO)[C@@H](O)[C@H]2O)c(=O)[nH]1 [Compound 19994] | – | – | 10.4% | 1.05 Ratio

SMILES | Int.* (Ratio) (Interference) [1] | Inh. (%) (Inhibition) (MBHA with DNA substrate) | Inh. (%) (Inhibition) (MBHA with a DNA substrate) | Int.* (Ratio) (Interference) [2]
CCCCOCc1cc(CN2CCN(C)CC2)c(O)c2ncccc12 [Compound 20514] | – | – | −19.2% | 1.06 Ratio
CCN(CCO)CCNc1ccc(C)c2sc3ccccc3c(=O)c12 [Compound 20534] | 0.96 Ratio | 15.7% | – | –
Cc1cn(C2CC(O)C(CO)O2)c(=O)[nH]c1=O (stereo not shown) [Compound 21548] | 0.98 Ratio | 2.1% | – | –
O=c1oc2cc(O)ccc2c2oc3cc(O)ccc3c12 [Compound 22842] | 1.10 Ratio | 1.5% | – | –
CC(CN(C)C)C(=O)c1ccccc1C(=O)O (stereo not shown) [Compound 22992] | 0.86 Ratio | 25.9% | – | –
CN(CCc1ccccn1)c1ccc2c(c1)C(=O)c1ccccc1-2 [Compound 24048] | 1.11 Ratio | −12.7% | – | –
CN(C)CCCN1c2ccc3ccccc3c2Sc2cccc(Cl)c21 [Compound 24113] | – | – | 11.0% | 0.81 Ratio
CO[C@H](C(=O)[C@@H](O)[C@@H](C)O)[C@@H]1Cc2cc3cc(O[C@H]4C[C@@H](O[C@H]5C[C@@H](O)[C@H](O)[C@@H](C)O5)[C@H](O)[C@@H](C)O4)c(C)c(O)c3c(O)c2C(=O)[C@H]1O[C@H]1C[C@@H](O[C@H]2C[C@@H](O[C@H]3C[C@](C)(O)[C@H](O)[C@@H](C)O3)[C@@H](O)[C@@H](C)O2)[C@H](O)[C@@H](C)O1 [Compound 24559] | 0.91 Ratio | 36.0% | – | –
COc1cc([C@@H]2c3cc4c(c(O)c3C[C@H]3COC(=O)[C@@H]32)OCO4)cc(OC)c1O [Compound 24817] | 0.99 Ratio | 15.4% | – | –
COc1cc(C2c3cc4c(cc3C(O)C3COC(=O)C23)OCO4)cc(OC)c1OC (stereo not shown) [Compound 24818] | 1.07 Ratio | −2.7% | – | –
COc1cc([C@@H]2c3cc4c(c(O)c3C[C@H]3COC(=O)[C@@H]32)OCO4)cc(OC)c1OC [Compound 24819] | 1.12 Ratio | −0.3% | – | –
CC(C)C1=CC2=CC[C@@H]3[C@](C)(CCC[C@@]3(C)C(=O)O)[C@H]2CC1 [Compound 25149] | 0.93 Ratio | −11.6% | – | –
OC(CN1CCCCC1)c1ccc(/C=C/c2ccc(Cl)cc2)cc1 (stereo not shown) [Compound 26040] | 0.97 Ratio | −17.0% | – | –
O=C1Nc2c(Cl)cc(Cl)cc2C1=O [Compound 26045] | 0.92 Ratio | −13.7% | – | –
OCC1OC(n2cnc3c(SCc4ccccc4)ncnc32)C(O)C1O (stereo not shown) [Compound 26273] | – | – | −6.4% | 0.89 Ratio
Cc1c2ccc3ccccc3c2c[n+]2ccccc12.[Cl-] [Compound 28002] | 1.08 Ratio | 27.1% | – | –
Cl.Nc1nc(N)c2ncn(-c3ccccc3)c2n1 [Compound 29603] | – | – | −5.0% | 0.99 Ratio
O=C([O][Hg][CH2]C1COC([CH2][Hg][O]C(=O)c2ccccc2)CO1)c1ccccc1 (stereo not shown) [Compound 30916] | 0.93 Ratio | 19.0% | – | –
Nc1ccc2nc3ccc(=O)cc-3n(-c3ccccc3)c2c1 [Compound 31702] | 0.92 Ratio | −9.7% | – | –
NC(=O)NO [Compound 32065] | 1.01 Ratio | 3.7% | – | –
